Measurements from PubChem BioAssay (NCI).
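48-hour exposure; five concentrations; linearly interpolated endpoints. GI50 is the concentration that inhibits growth by half. Definition used: TGI = concentration required for complete inhibition of growth.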

Legend:
Assay in all cases: NCI anticancer screen, dose series, 48 h
IGROV1 ovarian = tested on: IGROV1 ovarian
M14 melanoma = tested on: M14 melanoma
MALME-3M melanoma = tested on: MALME-3M melanoma
EKVX NSCLC = tested on: EKVX NSCLC
HCC-2998 colon = tested on: HCC-2998 colon
SW-620 colon = tested on: SW-620 colon
SK-OV-3 ovarian = tested on: SK-OV-3 ovarian
K-562 leukemia = tested on: K-562 leukemia
SK-MEL-5 melanoma = tested on: SK-MEL-5 melanoma
OVCAR-5 ovarian = tested on: OVCAR-5 ovarian
XF 498 CNS = tested on: XF 498 CNS
786-0 renal = tested on: 786-0 renal
A549 NSCLC = tested on: A549 NSCLC
SNB-19 CNS = tested on: SNB-19 CNS
RXF 393 renal = tested on: RXF 393 renal
LXFL 529 NSCLC = tested on: LXFL 529 NSCLC
SF-539 CNS = tested on: SF-539 CNS
LOX IMVI melanoma = tested on: LOX IMVI melanoma
TK-10 renal = tested on: TK-10 renal
U251 CNS = tested on: U251 CNS
UACC-62 melanoma = tested on: UACC-62 melanoma
HOP-92 NSCLC = tested on: HOP-92 NSCLC
SNB-78 CNS = tested on: SNB-78 CNS
COLO 205 colon = tested on: COLO 205 colon
MOLT-4 leukemia = tested on: MOLT-4 leukemia
DLD-1 colon = tested on: DLD-1 colon
SNB-75 CNS = tested on: SNB-75 CNS
OVCAR-4 ovarian = tested on: OVCAR-4 ovarian
NCI-H460 lung = tested on: NCI-H460 lung
NCI-H522 lung = tested on: NCI-H522 lung
CAKI-1 renal = tested on: CAKI-1 renal
HCT-116 colon = tested on: HCT-116 colon
CCRF-CEM leukemia = tested on: CCRF-CEM leukemia
HT29 colon = tested on: HT29 colon
UACC-257 melanoma = tested on: UACC-257 melanoma
HOP-18 NSCLC = tested on: HOP-18 NSCLC
SF-295 CNS = tested on: SF-295 CNS
A498 renal = tested on: A498 renal
SK-MEL-2 melanoma = tested on: SK-MEL-2 melanoma
M19-MEL melanoma = tested on: M19-MEL melanoma
NCI-H23 lung = tested on: NCI-H23 lung
HCT-15 colon = tested on: HCT-15 colon
KM20L2 colon = tested on: KM20L2 colon
DMS 273 small cell lung = tested on: DMS 273 small cell lung
HOP-62 NSCLC = tested on: HOP-62 NSCLC
UO-31 renal = tested on: UO-31 renal
HL-60(TB) leukemia = tested on: HL-60(TB) leukemia
OVCAR-3 ovarian = tested on: OVCAR-3 ovarian
SK-MEL-28 melanoma = tested on: SK-MEL-28 melanoma
SN12C renal = tested on: SN12C renal
OVCAR-8 ovarian = tested on: OVCAR-8 ovarian
KM12 colon = tested on: KM12 colon
NCI-H226 lung = tested on: NCI-H226 lung
SF-268 CNS = tested on: SF-268 CNS
ACHN renal = tested on: ACHN renal
RPMI-8226 leukemia = tested on: RPMI-8226 leukemia
DMS 114 small cell lung = tested on: DMS 114 small cell lung
SR leukemia = tested on: SR leukemia

## CCC[CH2][Ge]([CH2]CCC)([CH2]CCC)[O]C(=O)C(OC(C)=O)c1ccccc1 (stereo not given)
IGROV1 ovarian
  GI50: 11.2 µM
  TGI: 25.8 µM
M14 melanoma
  GI50: 1050 nM
  TGI: 6.57 µM
MALME-3M melanoma
  GI50: 1160 nM
  TGI: 19.4 µM
EKVX NSCLC
  TGI: 9.37 µM
HCC-2998 colon
  GI50: 530 nM
  TGI: 5.63 µM
SW-620 colon
  GI50: 4.59 µM
  TGI: 20.6 µM
SK-OV-3 ovarian
  GI50: 12.4 µM
  TGI: 55.5 µM
K-562 leukemia
  GI50: 202 nM
  TGI: > 34 µM
SK-MEL-5 melanoma
  GI50: 774 nM
  TGI: 11.6 µM
OVCAR-5 ovarian
  GI50: 3.36 µM
  TGI: 17.5 µM
XF 498 CNS
  GI50: 2570 nM
  TGI: 15.4 µM
786-0 renal
  GI50: 6.34 µM
  TGI: 22.8 µM
A549 NSCLC
  GI50: 3.37 µM
  TGI: 30.9 µM
SNB-19 CNS
  GI50: 12 µM
  TGI: 36.9 µM
RXF 393 renal
  GI50: 102 nM
  TGI: 1.44 µM
LXFL 529 NSCLC
  GI50: 1310 nM
  TGI: 21 µM
SF-539 CNS
  GI50: 7.63 µM
  TGI: 22.3 µM
LOX IMVI melanoma
  GI50: 535 nM
  TGI: 9.14 µM
TK-10 renal
  GI50: 8.06 µM
  TGI: 54.3 µM
U251 CNS
  GI50: 1190 nM
  TGI: 20.2 µM
UACC-62 melanoma
  GI50: 1640 nM
  TGI: 15.6 µM
HOP-92 NSCLC
  GI50: 438 nM
  TGI: 12.3 µM
SNB-78 CNS
  GI50: 2990 nM
  TGI: 24.7 µM
COLO 205 colon
  GI50: 6.37 µM
  TGI: 20.9 µM
MOLT-4 leukemia
  GI50: 153 nM
  TGI: > 100 µM
DLD-1 colon
  GI50: 1760 nM
  TGI: 19 µM
SNB-75 CNS
  GI50: 973 nM
  TGI: 25.2 µM
OVCAR-4 ovarian
  GI50: 166 nM
  TGI: 20.2 µM
NCI-H460 lung
  GI50: 1240 nM
  TGI: 20 µM
NCI-H522 lung
  GI50: 304 nM
  TGI: 8.88 µM
CAKI-1 renal
  GI50: 13.7 µM
  TGI: 47.4 µM
HCT-116 colon
  GI50: 139 nM
  TGI: 13.4 µM
CCRF-CEM leukemia
  GI50: 229 nM
  TGI: > 26.1 µM
HT29 colon
  GI50: 742 nM
  TGI: 13.8 µM
UACC-257 melanoma
  GI50: 246 nM
  TGI: 11.5 µM
HOP-18 NSCLC
  GI50: 16.2 µM
  TGI: 43.8 µM
SF-295 CNS
  GI50: 4.02 µM
  TGI: 23.3 µM
A498 renal
  GI50: 11.4 µM
  TGI: 24.3 µM
SK-MEL-2 melanoma
  GI50: 3.17 µM
  TGI: 19.5 µM
M19-MEL melanoma
  GI50: 5.13 µM
  TGI: 20.3 µM
NCI-H23 lung
  GI50: 39.5 nM
  TGI: 6.24 µM
HCT-15 colon
  GI50: 1730 nM
  TGI: 14.5 µM
KM20L2 colon
  GI50: 652 nM
  TGI: 15.2 µM
DMS 273 small cell lung
  GI50: 5.84 µM
  TGI: > 37 µM
HOP-62 NSCLC
  GI50: 2180 nM
  TGI: 16.1 µM
UO-31 renal
  GI50: 1500 nM
  TGI: 18.5 µM
HL-60(TB) leukemia
  GI50: 314 nM
  TGI: 2.09 µM
OVCAR-3 ovarian
  GI50: 731 nM
  TGI: 8.52 µM
SK-MEL-28 melanoma
  GI50: 8.12 µM
  TGI: 22.1 µM
SN12C renal
  GI50: 7.7 µM
  TGI: 24.9 µM
OVCAR-8 ovarian
  GI50: 9.77 µM
  TGI: 22.8 µM
KM12 colon
  GI50: 2980 nM
  TGI: 22.1 µM
NCI-H226 lung
  GI50: 351 nM
  TGI: 19.7 µM
SF-268 CNS
  GI50: 1460 nM
  TGI: 27.8 µM
ACHN renal
  GI50: 2760 nM
  TGI: 19.8 µM
RPMI-8226 leukemia
  GI50: 297 nM
  TGI: 4.82 µM

## CNC(=O)OCc1cc2ccncc2c2c1[nH]c1ccccc12
IGROV1 ovarian
  TGI: > 100 µM
M14 melanoma
  TGI: > 100 µM
MALME-3M melanoma
  TGI: > 100 µM
EKVX NSCLC
  TGI: > 100 µM
HCC-2998 colon
  TGI: > 100 µM
SW-620 colon
  TGI: > 100 µM
DMS 114 small cell lung
  TGI: > 100 µM
K-562 leukemia
  TGI: > 100 µM
SK-MEL-5 melanoma
  TGI: > 100 µM
OVCAR-5 ovarian
  TGI: > 100 µM
XF 498 CNS
  TGI: 97.9 µM
786-0 renal
  TGI: > 100 µM
A549 NSCLC
  TGI: > 100 µM
SNB-19 CNS
  TGI: > 100 µM
SR leukemia
  TGI: > 33.2 µM
RXF 393 renal
  TGI: 8.39 µM
LXFL 529 NSCLC
  TGI: > 100 µM
SF-539 CNS
  TGI: > 100 µM
LOX IMVI melanoma
  TGI: > 100 µM
TK-10 renal
  TGI: > 100 µM
U251 CNS
  TGI: > 100 µM
UACC-62 melanoma
  TGI: > 100 µM
HOP-92 NSCLC
  TGI: > 100 µM
SNB-78 CNS
  TGI: > 100 µM
COLO 205 colon
  TGI: > 100 µM
MOLT-4 leukemia
  TGI: > 85.3 µM
DLD-1 colon
  TGI: > 100 µM
SNB-75 CNS
  TGI: > 80.3 µM
OVCAR-4 ovarian
  TGI: > 100 µM
NCI-H460 lung
  TGI: > 100 µM
NCI-H522 lung
  TGI: > 100 µM
CAKI-1 renal
  TGI: > 100 µM
HCT-116 colon
  TGI: > 100 µM
CCRF-CEM leukemia
  TGI: > 100 µM
HT29 colon
  TGI: > 100 µM
UACC-257 melanoma
  TGI: > 100 µM
HOP-18 NSCLC
  TGI: > 100 µM
SF-295 CNS
  TGI: > 100 µM
SK-MEL-2 melanoma
  TGI: > 100 µM
M19-MEL melanoma
  TGI: > 100 µM
NCI-H23 lung
  TGI: > 100 µM
HCT-15 colon
  TGI: > 100 µM
KM20L2 colon
  TGI: > 100 µM
DMS 273 small cell lung
  TGI: > 100 µM
HOP-62 NSCLC
  TGI: 55 µM
UO-31 renal
  TGI: > 100 µM
HL-60(TB) leukemia
  TGI: > 100 µM
OVCAR-3 ovarian
  TGI: > 100 µM
SK-MEL-28 melanoma
  TGI: > 100 µM
SN12C renal
  TGI: > 100 µM
OVCAR-8 ovarian
  TGI: > 100 µM
KM12 colon
  TGI: > 100 µM
NCI-H226 lung
  TGI: > 100 µM
SF-268 CNS
  TGI: > 41.8 µM
ACHN renal
  TGI: > 100 µM
RPMI-8226 leukemia
  TGI: > 100 µM

## O=C1C2C3CCC(C2C(=O)N1CO)C1C2C(=O)N(CO)C(=O)C2C31 (stereo not given)
IGROV1 ovarian
  TGI: > 100 µM
M14 melanoma
  TGI: > 100 µM
MALME-3M melanoma
  TGI: > 100 µM
EKVX NSCLC
  TGI: > 100 µM
HCC-2998 colon
  TGI: > 100 µM
SW-620 colon
  TGI: > 67.5 µM
DMS 114 small cell lung
  TGI: > 59.5 µM
SK-OV-3 ovarian
  TGI: > 100 µM
K-562 leukemia
  TGI: > 75.2 µM
SK-MEL-5 melanoma
  TGI: 98.9 µM
OVCAR-5 ovarian
  TGI: > 100 µM
XF 498 CNS
  TGI: > 100 µM
786-0 renal
  TGI: > 61.3 µM
A549 NSCLC
  TGI: > 67.6 µM
SNB-19 CNS
  TGI: > 100 µM
SR leukemia
  TGI: 36.7 µM
RXF 393 renal
  TGI: > 68.6 µM
LXFL 529 NSCLC
  TGI: > 100 µM
SF-539 CNS
  TGI: > 85.3 µM
LOX IMVI melanoma
  TGI: > 61.9 µM
TK-10 renal
  TGI: > 100 µM
U251 CNS
  TGI: > 56.2 µM
UACC-62 melanoma
  TGI: > 100 µM
HOP-92 NSCLC
  TGI: > 100 µM
SNB-78 CNS
  TGI: > 100 µM
COLO 205 colon
  TGI: > 59.6 µM
MOLT-4 leukemia
  TGI: 67.7 µM
DLD-1 colon
  TGI: > 65.6 µM
SNB-75 CNS
  TGI: > 100 µM
OVCAR-4 ovarian
  TGI: > 58.8 µM
NCI-H460 lung
  TGI: > 54.5 µM
NCI-H522 lung
  TGI: > 100 µM
CAKI-1 renal
  TGI: > 100 µM
HCT-116 colon
  TGI: > 54.2 µM
CCRF-CEM leukemia
  TGI: 48.2 µM
HT29 colon
  TGI: > 100 µM
UACC-257 melanoma
  TGI: > 100 µM
HOP-18 NSCLC
  TGI: 34.2 µM
SF-295 CNS
  TGI: > 100 µM
A498 renal
  TGI: > 100 µM
SK-MEL-2 melanoma
  TGI: > 100 µM
M19-MEL melanoma
  TGI: > 100 µM
NCI-H23 lung
  TGI: > 100 µM
HCT-15 colon
  TGI: > 60.4 µM
KM20L2 colon
  TGI: > 79.8 µM
DMS 273 small cell lung
  TGI: > 58.1 µM
HOP-62 NSCLC
  TGI: > 100 µM
UO-31 renal
  TGI: > 100 µM
HL-60(TB) leukemia
  TGI: 31.1 µM
OVCAR-3 ovarian
  TGI: > 100 µM
SK-MEL-28 melanoma
  TGI: > 100 µM
SN12C renal
  TGI: > 69.2 µM
OVCAR-8 ovarian
  TGI: > 67.6 µM
KM12 colon
  TGI: > 100 µM
NCI-H226 lung
  TGI: > 100 µM
SF-268 CNS
  TGI: > 86.3 µM
ACHN renal
  TGI: > 63 µM
RPMI-8226 leukemia
  TGI: 47.7 µM
